Assay results: US20030059421A1, “DNA encoding the baboon and cynomolgus macaque prostoglandin E2 receptor EP4 subtype” (Pfizer Inc., priority 2001, published 2003)
pEC50, pIC50: −log10 of the molar value.

Experiments:
[1] = biological target: T1, cynomolgus macaque prostaglandin receptor EP4 (cynEP4) (Macaca fascicularis, UniProt Q95J39); assay: cAMP accumulation (SPA) in CHO cells transiently transfected with cynomolgus macaque EP4; assay type: cell-based; settings: 12 minutes treatment, IBMX present
T1 sequence (Q95J39 entry or part of it): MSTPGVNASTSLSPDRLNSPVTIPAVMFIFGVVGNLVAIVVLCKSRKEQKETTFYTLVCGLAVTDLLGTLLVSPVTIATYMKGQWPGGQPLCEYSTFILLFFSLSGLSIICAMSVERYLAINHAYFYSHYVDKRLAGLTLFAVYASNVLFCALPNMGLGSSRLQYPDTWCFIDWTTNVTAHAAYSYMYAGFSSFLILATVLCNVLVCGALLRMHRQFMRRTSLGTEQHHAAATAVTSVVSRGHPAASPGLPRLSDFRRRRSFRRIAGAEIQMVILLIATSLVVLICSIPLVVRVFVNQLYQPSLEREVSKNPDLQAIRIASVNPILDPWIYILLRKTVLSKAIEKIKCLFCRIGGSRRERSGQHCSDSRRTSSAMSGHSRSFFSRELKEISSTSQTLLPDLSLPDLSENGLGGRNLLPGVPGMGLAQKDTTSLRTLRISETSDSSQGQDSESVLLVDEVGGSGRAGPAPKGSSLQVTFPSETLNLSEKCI
Protocol: (§1) FIG. 7 provides characterization of secondary signaling in CHO cells expressing cynomolgus macaque prostaglandin receptor EP4. An SPA assay was performed on CHO cells transiently transfected with cynEP4 following treatment for 12 minutes with either (▪) PGE2 or the EP4 specific ligand (●) EP4SL. Error bars represent one standard deviation.
(§2) Secondary signaling in CHO cells expressing baEP4 or cynEP4 was measured by cAMP accumulation. CHO cells transiently transfected with baEP4 or cynEP4 were treated for 12 minutes with various concentrations of PGE2 in the presence of 2 mM IBMX. Accumulation of intracellular cAMP was measured at the end of the treatment period by use of a commercially available scintillation proximity assay (SPA) kit (Amersham, Arlington Heights, Ill.).
(§3) The day prior to transfection, CHO—K1 cells were plated in 100 mm dishes (Corning, Corning, N.Y.) at 6×10^4 cells/cm^2 in DMEM/F12 (Life Technologies) supplemented with 10% fetal calf serum (FCS; Gemini Bio-Products, Calabasas, Calif.). […]
(§4) To measure stimulation of cAMP production, CHO cells transiently transfected with the baboon EP4 or cynomolgus macaque EP4 receptor were plated at 20,000 cells/well in poly-D lysine coated 96-well tissue-culture plates (Becton-Dickinson, Franklin Lakes, N.J.) and allowed to grow for 72 hours. […] Assay plates were then counted in a Wallac Trilux counter (Perkin Elmer, Boston, Mass.).

parental CHO—K1 cells = assay: cAMP levels in parental CHO-K1 cells; assay type: cell-based, Chinese hamster; settings: parental (untransfected) CHO-K1 cells
[2] = biological target: T1, cynomolgus macaque prostaglandin receptor EP4 (cynEP4); assay: Competition binding with 3H-PGE2 on CHO-K1 cells transiently transfected with cynomolgus macaque EP4; settings: for pIC50: cynEP4 transfected CHO-K1 whole cells, 3 nM 3H-PGE2, 1 hr on ice, read-out: IC50, displacement of 3H-PGE2 binding
Protocol: Each indicated concentration of (▪) PGE2, (♦) EP4SL, (▴) butaprost, or (●) sulprostone was incubated with three wells of a 24-well dish of CHO cells transiently transfected with cynEP4 for 1 hr on ice in the presence of 3 nM ^3H-PGE2. Following washing and solubilization of the cells, specific binding was determined by scintillation counting.
(§5) To test the binding and signaling characteristics of this putative ba/cynEP4 receptor, DNA fragments containing the entire open reading frames of each baboon and cynomolgus macaque were separately transiently transfected into CHO—K1 cells.
CHO cells transiently transfected with the baboon EP4 or cynomolgus macaque EP4 receptor were plated at 60,000 cells/well in 24-well tissue-culture dishes (Corning, Corning, N.Y.) and allowed to grow for 48 hours. Whole cell binding reactions (0.2 ml per well) containing 3 nM ^3H-PGE2 plus unlabeled competitor (10^−5 to 10^−10 M) were performed on ice for 1 hr. Unbound radioligand was removed by extensive washing, the cells were solubilized with 1% SDS, and the bound ^3H-PGE2 quantitated by scintillation counting.

[3] = biological target: T2, baboon prostaglandin receptor EP4 (baEP4) (Papio cynocephalus, UniProt Q7JGJ7); assay: Competition binding with 3H-PGE2 on CHO-K1 cells transiently transfected with baboon EP4; settings: for pIC50: baEP4 transfected CHO-K1 whole cells, 3 nM 3H-PGE2, 1 hr on ice, read-out: IC50, displacement of 3H-PGE2 binding
T2 sequence (Q7JGJ7 entry or part of it): as the sequence (Q95J39 entry or part of it) above
Protocol: Following washing and solubilization of the cells, specific binding was determined by scintillation counting.
as §5
The day prior to transfection, CHO—K1 cells were plated in 100 mm dishes (Corning, Corning, N.Y.) at 6×10^4 cells/cm^2 in DMEM/F12 (Life Technologies) supplemented with 10% fetal calf serum (FCS; Gemini Bio-Products, Calabasas, Calif.). The next day, each plate of cells was transfected with 15 g of either baboon or cynomolgus macaque EP4-pCR3.1-Uni plasmid DNA using Lipofectamine 2000 reagent (Life Technologies) according to the manufacturer's protocol. Briefly, 45 l of Lipofectamine 2000 reagent was diluted into 1.5 ml of D-MEM/F12 without serum and incubated at room temperature for 5 minutes. During this time, 15 g of either baboon or cynomolgus macaque EP4-pCR3.1-Uni plasmid DNA was diluted into 0.5 ml of D-MEM/F12 without serum. The diluted Lipofectamine 2000 reagent and the DNA were then mixed and incubated an additional 20 minutes at room temperature. 8 ml D-MEM/F12 without serum was then added to each reaction and carefully added to a plate of CHO cell previously rinsed with serum free D-MEM/F12. These cells were then incubated at 37° C. with 5% CO2 for 6 hr at which time 1 ml FCS was added per plate and the incubation continued at 37° C. with 5% CO2 overnight. The following day, the cells were split to either 24-well or 96-well dishes for use in ligand binding and/or secondary signaling analyses.
CHO cells transiently transfected with the baboon EP4 or cynomolgus macaque EP4 receptor were plated at 60,000 cells/well in 24-well tissue-culture dishes (Corning, Corning, N.Y.) and allowed to grow for 48 hours. […] Unbound radioligand was removed by extensive washing, the cells were solubilized with 1% SDS, and the bound ^3H-PGE2 quantitated by scintillation counting.

[4] = biological target: T2, baboon prostaglandin receptor EP4 (baEP4); assay: cAMP accumulation (SPA) in CHO cells transiently transfected with baboon EP4; assay type: cell-based; settings: 12 minutes treatment, IBMX present
Protocol: as §1, with “6” for “7”, “baboon” for “cynomolgus macaque”, “baboon EP4” for “cynEP4”
as §2, §3, §4

Row | binding to the receptor (competition with 3H-PGE2), result in words ([2]; cynEP4 transfected CHO-K1 cells, competitor 10^-5 to 10^-10 M) | binding to the receptor (competition with 3H-PGE2), result in words ([3]; baEP4 transfected CHO-K1 cells, competitor 10^-5 to 10^-10 M) | Compound | pEC50 [1] | increased levels of cAMP, result in words (parental CHO—K1 cells) | pIC50 [2] | pIC50 [3] | pEC50 [4]
1 |  |  | O=C(O)CCCCCCN1C(=O)CCC1CCC(O)Cc1ccccc1 (stereo not drawn) [EP4SL, 7-[2-(3-hydroxy-4-phenyl-butyl)-5-oxo-pyrrolidin-1-yl]-heptanoic acid] | 6.25 | not in parental CHO—K1 cells | 6.52 | 6.44 | 6.06
2 |  |  | CCCCC[C@H](O)/C=C/[C@H]1[C@H](O)CC(=O)[C@@H]1C/C=C\CCCC(=O)O [PGE2, Prostaglandin E2] | 8.05 | not in parental CHO—K1 cells | 8.60 | 8.59 | 7.65
3 | did not bind | did not bind | CCCC1([C@H](O)C/C=C/[C@H]2[C@H](O)CC(=O)[C@@H]2CCCCCCC(=O)OC)CCC1 [butaprost] |  |  |  |  | 
